{
  "source": "PubChem BioAssay AID1117319",
  "about": "(Southern Research Institute, 2015)",
  "target": "Virion infectivity factor (Human immunodeficiency virus type 1 group M subtype B (isolate BH10)) + Virion infectivity factor (Human immunodeficiency virus type 1 group M subtype B (isolate BRU/LAI)) + Virion infectivity factor (Human immunodeficiency virus type 1 group M subtype B (isolate PCV12)) + Virion infectivity factor (Human immunodeficiency virus type 1 group M subtype B (isolate HXB2)) + DNA dC->dU-editing enzyme APOBEC-3G (Homo sapiens) (UniProt P69720+P69721+P69722+P69723+Q9HC16)",
  "assay": "HIV-1 Vif–A3G interaction blockers – biochemical, TR-FRET, GST-Vif 1-94, biotin-A3G peptide, dose response retest, primary screen (AID 1117319);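 also: Vif residues 1-94 fused to GST binding biotinylated APOBEC3G peptide 110-148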",
  "conditions": "TR-FRET GST-Vif / biotin-A3G peptide binding",
  "note": "Inconclusive results are not listed.",
  "data": [
    {"smiles": "O=C1C2C3C=CC(C3)C2C(=O)N1CNc1ccc(O)cc1", "note": "(stereo not given)", "values": [
      {"measurement": "IC50", "value": 2.78, "unit": "µM"}
    ]},
    {"smiles": "O=C1C(Cl)=C(N2CCCCC2)C(=O)C(Cl)=C1c1cnc(N2CCCCC2)s1", "values": [
      {"measurement": "IC50", "value": 4.21, "unit": "µM"}
    ]},
    {"smiles": "O=C(CCCN1C(=O)/C(=C\\c2ccco2)SC1=S)Nc1ccc2ccccc2c1", "values": [
      {"measurement": "IC50", "value": 7.25, "unit": "µM"}
    ]},
    {"smiles": "COc1ccc2[nH]c3c4c(ccc3c2c1)C(=O)C=CC4=O", "values": [
      {"measurement": "IC50", "value": 1.42, "unit": "µM"}
    ]},
    {"smiles": "CCn1c(SCC(=O)NCc2ccco2)nnc1-c1cccs1", "values": [
      {"measurement": "IC50", "value": 95.8, "unit": "µM"}
    ]},
    {"smiles": "O=C1CCCC(O)=C1N=Nc1ccc(C(=O)O)cc1", "values": [
      {"measurement": "IC50", "value": 2.72, "unit": "µM"}
    ]},
    {"smiles": "O=C(CCc1ccc(S(=O)(=O)NCCc2ccccc2)cc1)Nc1ccc2c(c1)OCO2", "values": [
      {"measurement": "IC50", "value": 43.5, "unit": "µM"}
    ]},
    {"smiles": "CSc1ccc(/C=N/Nc2cccc(C(=O)O)c2)cc1", "values": [
      {"measurement": "IC50", "value": 11.2, "unit": "µM"}
    ]},
    {"smiles": "O=C1c2cccnc2C(Nc2ccccc2)N1Cc1ccco1", "note": "(stereo not given)", "values": [
      {"measurement": "IC50", "value": 22.9, "unit": "µM"}
    ]},
    {"smiles": "CC(C)(C)NC(=O)C(c1ccncc1)N(C(=O)CNC(=O)c1ccco1)c1ccc2c(c1)OCO2", "note": "(stereo not given)", "values": [
      {"measurement": "IC50", "value": 11.3, "unit": "µM"}
    ]},
    {"smiles": "Cc1cc(-c2n[nH]c(=S)n2/N=C/C=C/c2ccco2)n[nH]1", "values": [
      {"measurement": "IC50", "value": 6.02, "unit": "µM"}
    ]},
    {"smiles": "CCCC(=O)NC1=C(Cl)C(=O)c2ccccc2C1=O", "values": [
      {"measurement": "IC50", "value": 13.1, "unit": "µM"}
    ]},
    {"smiles": "Cc1occc1-c1nnc(SCC(=O)N2CCN(c3ccccc3)CC2)n1C", "values": [
      {"measurement": "IC50", "value": 56.8, "unit": "µM"}
    ]},
    {"smiles": "COC(=O)C1=C(O)/C(=C\\c2ccc(CNC(=O)C(=O)Nc3ccc(C)c(C)c3)o2)N=C1C", "values": [
      {"measurement": "IC50", "value": 34.1, "unit": "µM"}
    ]},
    {"smiles": "CCN(CC)c1ccc(C=Nc2ccc(N(C)C)cc2)c(O)c1", "values": [
      {"measurement": "IC50", "value": 35.7, "unit": "µM"}
    ]},
    {"smiles": "COc1ccc(C(=O)n2nc(-c3ccc(Cl)cc3)nc2N)cc1OC", "values": [
      {"measurement": "IC50", "value": 70.9, "unit": "µM"}
    ]},
    {"smiles": "COc1ccc(CCNC(=O)CN2CCCc3ccccc32)cc1OC", "values": [
      {"measurement": "IC50", "value": 91, "unit": "µM"}
    ]},
    {"smiles": "Cc1cc(C(=O)COC(=O)c2cc(O)c3ccccc3c2O)c(C)n1CC1CCCO1", "note": "(stereo not given)", "values": [
      {"measurement": "IC50", "value": 6.92, "unit": "µM"}
    ]},
    {"smiles": "O=C1/C(=C\\c2ccco2)SC(=S)N1c1ccccc1", "values": [
      {"measurement": "IC50", "value": 2.58, "unit": "µM"}
    ]},
    {"smiles": "COC(=O)CSc1nnc(CNC(=O)Cc2ccccc2)n1-c1ccccc1OC", "values": [
      {"measurement": "IC50", "value": 77.7, "unit": "µM"}
    ]},
    {"smiles": "COCCNC(=O)Nc1ccc2nc(-c3ccco3)c(-c3ccco3)nc2c1", "values": [
      {"measurement": "IC50", "value": 0.25, "unit": "µM"}
    ]},
    {"smiles": "Cc1[nH]c2ccccc2c1Cc1nnc(SCc2ccccc2)o1", "values": [
      {"measurement": "IC50", "value": 70.8, "unit": "µM"}
    ]},
    {"smiles": "Cc1ccc(-n2c(-c3cc(-c4ccco4)[nH]n3)n[nH]c2=S)c(Br)c1", "values": [
      {"measurement": "IC50", "value": 6.39, "unit": "µM"}
    ]},
    {"smiles": "CCOC(=O)NC1(NC2CCCCC2)Oc2ccccc2O1", "values": [
      {"measurement": "IC50", "value": 7.31, "unit": "µM"}
    ]},
    {"smiles": "O=C(O)CCc1ccc(S(=O)(=O)Nc2cc(C(F)(F)F)ccc2N2CCCC2)cc1", "values": [
      {"measurement": "IC50", "value": 14.4, "unit": "µM"}
    ]},
    {"smiles": "Nc1ccccc1NC1=CC(=O)CC(c2ccco2)C1", "note": "(stereo not given)", "values": [
      {"measurement": "IC50", "value": 49.4, "unit": "µM"}
    ]},
    {"smiles": "O=C(Nc1ccc2nc(-c3ccco3)c(-c3ccco3)nc2c1)NC1CC1", "values": [
      {"measurement": "IC50", "value": 0.3, "unit": "µM"}
    ]},
    {"smiles": "Cc1c(N=C2C=C(Br)C(=O)C(Br)=C2)c(=O)n(-c2ccccc2)n1C", "values": [
      {"measurement": "IC50", "value": 14.1, "unit": "µM"}
    ]},
    {"smiles": "CCN(CC)c1ccc(NC2CC(=O)N(CCc3ccc(OC)cc3)C2=O)cc1", "note": "(stereo not given)", "values": [
      {"measurement": "IC50", "value": 6.97, "unit": "µM"}
    ]},
    {"smiles": "CCC(c1ccc(O)c(O)c1)C(CC)c1ccc(O)c(O)c1", "note": "(stereo not given)", "values": [
      {"measurement": "IC50", "value": 6.46, "unit": "µM"}
    ]},
    {"smiles": "COc1ccc(OC)c(NC(=O)CCN2CCC(C)CC2)c1", "values": [
      {"measurement": "IC50", "value": 25.4, "unit": "µM"}
    ]},
    {"smiles": "O=C1C(Cl)=C(Nc2ccc3cn[nH]c3c2)C(=O)c2ccccc21", "values": [
      {"measurement": "IC50", "value": 3.58, "unit": "µM"}
    ]},
    {"smiles": "COc1ccc(N=C2S/C(=C\\c3ccc(C)o3)C(=O)N2CC(C)C)cc1", "values": [
      {"measurement": "IC50", "value": 39.7, "unit": "µM"}
    ]},
    {"smiles": "N#CC1=C(N)C2=C(N3CCCCC3)CCCC2C1(C#N)C#N", "note": "(stereo not given)", "values": [
      {"measurement": "IC50", "value": 1.7, "unit": "µM"}
    ]},
    {"smiles": "O=c1cc2c(=O)oc3cc(O)c(O)oc3c2c(O)c1O", "values": [
      {"measurement": "IC50", "value": 1.68, "unit": "µM"}
    ]},
    {"smiles": "CC(=O)Nc1ccc(S(=O)(=O)NCCSCc2ccco2)cc1", "values": [
      {"measurement": "IC50", "value": 15.3, "unit": "µM"}
    ]},
    {"smiles": "O=C(O)c1ccc2c(c1)C1C(Cl)C(Sc3ccccc3[N+](=O)[O-])CC1C(c1cccc([N+](=O)[O-])c1)N2", "note": "(stereo not given)", "values": [
      {"measurement": "IC50", "value": 11.8, "unit": "µM"}
    ]},
    {"smiles": "Cc1cc(C)c(S(=O)(=O)NCC2CCC(C(=O)N3CCC4(CC3)OCCO4)CC2)c(C)c1", "note": "(stereo not given)", "values": [
      {"measurement": "IC50", "value": 39.6, "unit": "µM"}
    ]},
    {"smiles": "COc1cccc(C2C(C#N)=C(N)OC3=C2C(=O)CC(c2ccco2)C3)c1OCc1ccc(F)cc1", "note": "(stereo not given)", "values": [
      {"measurement": "IC50", "value": 7.82, "unit": "µM"}
    ]},
    {"smiles": "O=c1cc(O)n(-c2ccc(F)cc2)c(=S)[nH]1", "values": [
      {"measurement": "IC50", "value": 51.5, "unit": "µM"}
    ]},
    {"smiles": "Cc1cc(C)nc(N/N=C/C2=C(N3CCOCC3)C(=C\\c3ccc(Cl)cc3)/CC2)n1", "values": [
      {"measurement": "IC50", "value": 13.3, "unit": "µM"}
    ]},
    {"smiles": "S=c1[nH]nc(-c2cccnc2)n1/N=C/C=C/c1ccco1", "values": [
      {"measurement": "IC50", "value": 3.97, "unit": "µM"}
    ]},
    {"smiles": "Cc1cc(Cl)cc2c1NC(=O)[C@]21[C@@H]2C(=O)N(Cc3ccccc3)C(=O)[C@@H]2[C@@H]2CCCN21", "values": [
      {"measurement": "IC50", "value": 38, "unit": "µM"}
    ]},
    {"smiles": "C=C(C)C(=O)Nc1cccc(C2=NOC3(C2)C[C@@H](C(N)=O)N(C(=O)CCCCC)C3)c1", "note": "(stereo not given in full)", "values": [
      {"measurement": "IC50", "value": 0.22, "unit": "µM"}
    ]},
    {"smiles": "CCOc1cccc(OCC)c2c(C)[n+](CC3CCCO3)c(C)c1-2", "note": "(stereo not given)", "values": [
      {"measurement": "IC50", "value": 0.85, "unit": "µM"}
    ]},
    {"smiles": "CC1(CCl)N([O-])C2=C(CCCC2)[N+]1=O", "note": "(stereo not given)", "values": [
      {"measurement": "IC50", "value": 8.49, "unit": "µM"}
    ]},
    {"smiles": "Cc1cccc(NC(=O)CSc2nnc(-c3ccco3)c(-c3ccco3)n2)c1C", "values": [
      {"measurement": "IC50", "value": 4.3, "unit": "µM"}
    ]},
    {"smiles": "CCn1c(SC(C)C(=O)O)nc2sc3c(c2c1=O)CCC3", "note": "(stereo not given)", "values": [
      {"measurement": "IC50", "value": 8.89, "unit": "µM"}
    ]},
    {"smiles": "O=C(NC1CC1)c1cc(-c2ccco2)nc2ccccc12", "values": [
      {"measurement": "IC50", "value": 2.53, "unit": "µM"}
    ]},
    {"smiles": "Cc1ccc(C(=O)O)cc1-c1ccc(/C=C2/NC(=O)N(c3ccccc3)C2=O)o1", "values": [
      {"measurement": "IC50", "value": 25.5, "unit": "µM"}
    ]},
    {"smiles": "Cc1ccc2c(c1)C1C=CCC1C(C(=O)O)N2", "note": "(stereo not given)", "values": [
      {"measurement": "IC50", "value": 0.95, "unit": "µM"}
    ]},
    {"smiles": "CCOC(=O)C1=C(COC(=O)/C=C/c2ccco2)NC(=O)NC1C", "note": "(stereo not given)", "values": [
      {"measurement": "IC50", "value": 10.9, "unit": "µM"}
    ]},
    {"smiles": "CC[C@H](C)/C=C(C)/C=C/C1=CC2=CC(=O)[C@]3(C)OC(=O)[C@@H](C(C)=O)[C@@H]3C2=CO1", "values": [
      {"measurement": "IC50", "value": 13, "unit": "µM"}
    ]},
    {"smiles": "Cc1cc(C)cc(Nc2ccc(C(=O)O)cc2N)c1", "values": [
      {"measurement": "IC50", "value": 26.1, "unit": "µM"}
    ]},
    {"smiles": "O=C(NC1CCC(C(=O)O)CC1)OCc1ccccc1", "note": "(stereo not given)", "values": [
      {"measurement": "IC50", "value": 12.4, "unit": "µM"}
    ]}
  ]
}
